Patent US9981940B2, “Aryl sulfide derivatives and aryl sulfoxide derivatives as acaricides and insecticides” (BAYER CROPSCIENCE AKTIENGESELLSCHAFT, priority 2013, dated 2018)

Legend:
Tetranychus urticae = Tetranychus urticae spray test, OP-resistant (TETRUR); format: in vivo; conditions: after 6 days; for pest or weed control at 500 g/ha: Tetranychus urticae, 144 h, read-out: efficacy
Method: Tetranychus urticae—Spray Test, OP-Resistant (TETRUR)
• Solvent: 78.0 parts by weight of acetone • 1.5 parts by weight of dimethylformamide • Emulsifier: 0.5 part by weight of alkylaryl polyglycol ether
To produce an appropriate active ingredient formulation, 1 part by weight of active ingredient is mixed with the specified amounts of solvent and emulsifier, and the concentrate is diluted to the desired concentration with emulsifier-containing water.
Discs of bean leaves (Phaseolus vulgaris) infested by all stages of the greenhouse red spider mite (Tetranychus urticae) are sprayed with an active ingredient formulation of the desired concentration.
After 6 days, the efficacy in % is determined 100% means that all the spider mites have been killed; 0% means that none of the spider mites have been killed.

[1] = log P by HPLC (OECD Guideline 117), method [a] acidic range; format: physicochemical; conditions: for logP[a]: method [a] acidic range; for chromatographic logP: reversed-phase C18 HPLC column
Method: (§1) The log P values were determined analogously to OECD Guideline 117 (EC Directive 92/69/EEC) by HPLC (high-performance liquid chromatography) using reversed-phase columns (C 18), by the following methods:
[a] The LC-MS determination in the acidic range is effected at pH 2.7 with 0.1% aqueous formic acid and acetonitrile (contains 0.1% formic acid) as eluents; linear gradient from 10% acetonitrile to 95% acetonitrile.

[2] = log P by HPLC (OECD Guideline 117), method [b] neutral range; format: physicochemical; conditions: HPLC; for logP[b]: method [b] neutral range; for chromatographic logP: reversed-phase C18 HPLC column
Method: as §1
[b] The LC-MS determination in the neutral range is effected at pH 7.8 with 0.001 molar aqueous ammonium hydrogencarbonate solution and acetonitrile as eluents; linear gradient from 10% acetonitrile to 95% acetonitrile.

[3] = pH 2.7, HPLC method [a], acidic range, read-out: logP[a]
[4] = pH 2.7, HPLC, acidic range, pH 2.7, read-out: log P[a]

logP[a] ([1]; HPLC) | logP[b] [2] | Structure (SMILES) | efficacy (Tetranychus urticae; application rate of 500 g/ha) | further results
4.08 | 4.01 | Cc1cc(F)c(-n2nc(SC(F)(F)F)n(C3CC3)c2=O)cc1SCC(F)(F)F [Example 263] |  | efficacy (Tetranychus urticae; application rate of 100 g/ha): 100%
3.22 | 3.13 | O=c1n(-c2cc([S+]([O-])CC(F)(F)F)c(Cl)cc2F)nc(OCC(F)(F)F)n1C1CC1 (racemic) [Example 382] | 100% | 
 |  | Cc1cc(F)c(-n2nnn(-c3ccc(Cl)cc3)c2=O)cc1SCC(F)(F)F [Example 306, 1-(4-Chlorophenyl)-4-{2-fluoro-4-methyl-5-[(2,2,2-trifluoroethyl)sulphanyl]phenyl}-1,4-dihydro-5H-tetrazol-5-one] |  | pest or weed control at 500 g/ha (Tetranychus urticae; application rate of 500 g/ha): 100%; chromatographic logP [1, 3]: 4.75; chromatographic logP [1, 4]: 4.75; chromatographic logP ([2]; neutral range, pH 7.8): 4.59
3.34 | 3.31 | Cc1cc(F)c(-n2nc(C3CCCCC3)n(C3CC3)c2=O)cc1[S+]([O-])CC(F)(F)F (centres unmarked) [Example 361] | 100% | 
4.18 | 4.13 | Cc1cc(F)c(-n2nc(Br)n(Cc3ccccc3)c2=O)cc1SCC(F)(F)F [Example 440] | 100% | 
3.86 | 3.80 | Cc1cc(F)c(-n2nc(N(C)C)n(C3CC3)c2=O)cc1SCC(F)(F)F [Example 416] | 90% | 
3.91 | 3.83 | Cc1cc(F)c(-n2nc(SCC3CC3)n(C)c2=O)cc1SCC(F)(F)F [Example 279] | 100% | 
4.95 | 4.88 | Cc1cc(C)c(-n2nc(C(F)(F)F)n(C(C)(C)C)c2=O)cc1SCC(F)(F)F [Example 49] | 90% | 
3.94 | 3.89 | C=CCn1c(OCC(F)(F)F)nn(-c2cc(SCC(F)(F)F)c(C)cc2F)c1=O [Example 399] | 90% | 
3.06 | 3.03 | Cc1cc(F)c(-n2nc(C3CCCC3)n(C3CC3)c2=O)cc1[S+]([O-])CC(F)(F)F (centres unmarked) [Example 360] | 90% | 
2.99 | 2.92 | Cc1cc(F)c(-n2nc([S+]([O-])C(C)C)n(C3CC3)c2=O)cc1SCC(F)(F)F (centres unmarked) [Example 238] | 100% | 
3.53 | 3.44 | CCn1c(SC)nn(-c2cc(SCC(F)(F)F)c(C)cc2F)c1=O [Example 269] | 100% | 
2.68 | 2.65 | C=CCOc1nn(-c2cc([S+]([O-])CC(F)(F)F)c(C)cc2F)c(=O)n1C1CC1 (centres unmarked) [Example 391] | 100% | 
2.67 | 2.61 | Cc1cc(F)c(-n2nc(C3CC3)n(N)c2=O)cc1SCC(F)(F)F [Example 196] | 100% | 
1.86 | 1.84 | Cc1cc(F)c(-n2nc(N(C)C)n(C)c2=O)cc1[S+]([O-])CC(F)(F)F (racemic) [Example 191] | 90% | 
3.60 | 3.52 | Cc1cc(F)c(-n2nc(OCC(C)(C)C)n(C3CC3)c2=O)cc1[S+]([O-])CC(F)(F)F (racemic) [Example 387] | 90% | 
2.50 | 2.47 | Cc1cc(F)c(-n2ccn(C(C)(C)C)c2=O)cc1[S+]([O-])CC(F)(F)F (centres unmarked) [Example 489] | 90% | 
1.47 | 1.45 | COCc1nn(-c2cc([S+]([O-])CC(F)(F)F)c(C)cc2F)c(=O)n1N (centres unmarked) [Example 207] | 100% | 
2.94 | 2.90 | C=CCn1c(OCC(F)(F)F)nn(-c2cc([S+]([O-])CC(F)(F)F)c(C)cc2F)c1=O (centres unmarked) [Example 407] | 90% | 
2.26 | 2.24 | COc1nn(-c2cc([S+]([O-])CC(F)(F)F)c(Cl)cc2Cl)c(=O)n1C (centres unmarked) [Example 97] | 90% | 
3.73 | 3.70 | CC1=C(C)C(=O)N(c2cc(SCC(F)(F)F)c(C)cc2C)C1=O [Example 342] | 90% | log P[a] ([1]; HPLC, acidic range, pH 2.7): 2.07; log P[b] ([2]; neutral range, pH 7.8): 3.67

logP[a] ([1]; HPLC) | logP[b] [2] | Structure (SMILES) | efficacy (Tetranychus urticae; application rate of 500 g/ha) | further results
2.73 | 2.68 | Cc1cc(F)c(-n2nc(SC(C)C)n(C)c2=O)cc1[S+]([O-])CC(F)(F)F (centres unmarked) [Example 275] | 100% | 
3.49 | 3.43 | COCc1nn(-c2cc(SCC(F)(F)F)c(C)cc2F)c(=S)n1C1CC1 [Example 492] | 100% | 
2.31 | 2.33 | Cc1cc(F)c(-n2nc(C3CC3)n(C3CC3)c2=O)cc1[S+]([O-])CC(F)(F)F (racemic) [Example 66] | 100% | 
1.76 | 1.74 | COn1c(C)nn(-c2cc([S+]([O-])CC(F)(F)F)c(C)cc2F)c1=O (centres unmarked) [Example 226] | 100% | 
2.83 | 2.79 | CCCOc1nn(-c2cc([S+]([O-])CC(F)(F)F)c(C)cc2F)c(=O)n1C1CC1 (centres unmarked) [Example 112] | 90% | 
2.92 | 2.85 | Cc1cc(F)c(-n2nc(OCc3ccccc3)n(C)c2=O)cc1[S+]([O-])CC(F)(F)F (centres unmarked) [Example 177] |  | efficacy (Tetranychus urticae; application rate of 100 g/ha): 100%
3.18 | 3.15 | COCc1nn(-c2cc(SCC(F)(F)F)c(C)cc2F)c(=O)o1 [Example 450] | 100% | 
3.38 | 3.37 | Cc1ccc(-n2nc(C(F)(F)F)n(N)c2=O)cc1SCC(F)(F)F [Example 212] | 90% | 
3.59 | 3.52 | Cc1cc(F)c(-n2nc(C(C)C)n(C3CC3)c2=O)cc1SCC(F)(F)F [Example 44] | 100% | 
2.08 | 2.03 | Cc1cc(F)c(-n2nc([S+]([O-])C(C)C)n(C3CC3)c2=O)cc1[S+]([O-])CC(F)(F)F (centres unmarked) [Example 239] | 100% | 
2.94 | 2.88 | CCCCc1nn(-c2cc([S+]([O-])CC(F)(F)F)c(C)cc2F)c(=O)n1C1CC1 (racemic) [Example 72] | 90% | 
3.90 | 3.86 | CCCSc1nn(-c2cc(SCC(F)(F)F)c(C)cc2F)c(=O)n1C [Example 277] | 100% | 
 |  | Cc1cc(F)c(-n2nc(C3CC3)n(N(C)C)c2=O)cc1SCC(F)(F)F [Example 195, 5-Cyclopropyl-4-(dimethylamino)-2-{2-fluoro-4-methyl-5-[(2,2,2-trifluoroethyl)sulphanyl]phenyl}-2,4-dihydro-3H-1,2,4-triazol-3-one] |  | pest or weed control at 500 g/ha (Tetranychus urticae; application rate of 500 g/ha): 100%; chromatographic logP [1, 3]: 3.75; chromatographic logP [1, 4]: 3.75; chromatographic logP ([2]; neutral range, pH 7.8): 3.73
2.86 | 2.80 | Cc1cc(F)c(-n2nc(CC(C)C)n(C3CC3)c2=O)cc1[S+]([O-])CC(F)(F)F (racemic) [Example 84] | 100% | 
 |  | Cc1cc(F)c(-n2nc(S(C)(=O)=O)n(C)c2=O)cc1[S+]([O-])CC(F)(F)F (centres unmarked) [Example 421, 2-{2-Fluoro-4-methyl-5-[(2,2,2-trifluoroethyl)sulphinyl]phenyl}-4-methyl-5-(methylsulphonyl)-2,4-dihydro-3H-1,2,4-triazol-3-one] |  | pest or weed control at 500 g/ha (Tetranychus urticae; application rate of 500 g/ha): 100%; chromatographic logP [1, 3]: 1.88; chromatographic logP [1, 4]: 1.88; chromatographic logP ([2]; neutral range, pH 7.8): 1.84
1.99 | 1.94 | COC1=CC(=O)N(c2cc([S+]([O-])CC(F)(F)F)c(C)cc2Cl)C1 (centres unmarked) [Example 318] | 90% | 
3.24 | 3.17 | CCCSc1nn(-c2cc([S+]([O-])CC(F)(F)F)c(C)cc2F)c(=O)n1C1CC1 (centres unmarked) [Example 266] | 100% | 
4.92 | 4.85 | Cc1cc(Cl)c(-n2nc(OCC(C)(C)C)n(C3CC3)c2=O)cc1SCC(F)(F)F [Example 396] | 100% | 
1.75 | 1.72 | Cc1cc(F)c(-n2nc(C3CC3)n(N)c2=O)cc1[S+]([O-])CC(F)(F)F (centres unmarked) [Example 206] | 100% | 
2.57 | 2.52 | Cc1cc(F)c(-n2nc(SCC(F)(F)F)n(C)c2=O)cc1[S+]([O-])CC(F)(F)F (racemic) [Example 282] | 100% | 
2.90 | 2.83 | Cc1cc(F)c(-n2nc(OCC(C)C)n(C)c2=O)cc1[S+]([O-])CC(F)(F)F (centres unmarked) [Example 152] | 90% | 
